Measured values from patent publication US20180153890A1, “PHARMACEUTICAL COMPOSITIONS AND USE THEREOF” (Hutchison MediPharma Limited, priority 2015, published 2018).
Marks after values point to notes of the source that are not given here.

Legend:
[1] = test system: NCI-H716 tumor; assay: Anti-tumor efficacy in NCI-H716 subcutaneous xenograft model; assay type: in vivo; conditions: three weeks
Method: NCI-H716 cell line was purchased from ATCC (CCL-251™) and incubated in the medium of RPM11640 (Rosewell Park Memorial Institute 1640) plus 10% fetal bovine serum (FBS) at 37° C. in a 5% CO2 incubator.
BALB/c athymic male mice (6-8 weeks) were purchased from Shanghai SLAC Laboratory Animal Co. Ltd. The mice were housed under specific pathogen free conditions. They were maintained in a 12 hour light and dark cycle with the temperature at 20-25° C. and humidity of 40%-70% and given free access to Co^60 radiated-sterile diet and autoclaved sterile water. There were four mice in each cage.
Compound A was dissolved in 0.5% CMC-Na, vortexed for 1-3 min, sonicated for 15 min and stored at 4° C. Compound A was formulated at 2.0, 4.0 and 8.0 mg/mL and prepared once a week.
When NCI-H716 cells reached about 80-90% in confluence, they were detached by Trypsin-EDTA and collected after centrifugation, then suspended in serum free-medium. Each mouse was injected subcutaneously in the right lateral flank with 0.2 mL of cells suspension containing 5×10^6 tumor cells with Martrigel (1:1).
When the NCI-H716 tumors grew to around average 300 mm^3, the tumor bearing mice were randomized to vehicle and Compound A treated groups. Compound A in 0.5% CMC-Na as prepared above was orally administered to mice at 20, 40 and 80 mg/kg twice daily for three weeks, and the vehicle group received 0.5% CMC-Na orally twice daily. The dosing volume was 10 mL/kg body weight. Tumor volume (TV) was measured two times per week by caliper for length and width, and calculated using the formula: TV=width^2×length/2.
At the end of the study, tumors were harvested and tumor growth inhibition (TGI) and tumor weight inhibition (IRTW) were calculated by the following equations, where V0 were the data at day 0 (D0) (starting day) and Vt were the data at measurement day t (Dt):
TGI=[1−(Vt−V0)drug treated/(Vt−V0)vehicle]×100%
IRTW(%)=[(TWvehicle−TWtreatment)/TWvehicle]×100%
Student's t-test was used for in comparison with vehicle control. Differences were considered statistically significant at P<0.05.

[2] = test system: NCI-H716 cells; assay: Cell viability assay on NCI-H716 (CCK-8); assay type: cell-based; conditions: Homo sapiens, 72 h incubation, read-out: IC50 on inhibition of NCI-H716 cells viability
Method: NCI-H716: human cecum colorectal adenocarcinoma cell line, purchased from ATCC (American Type Culture Collection).
Culture medium: RPMI 1640 containing 10% FBS.
NCI-H716 cells were diluted with RPMI-1640 medium containing 10% FBS. 90 μL of the diluted cells were added into each well of a 96-well plate so that each well contained 1×10^4 cells. The cells were subsequently incubated at 37° C., 5% CO2 overnight.
Test compound dissolved in DMSO was diluted to 30, 10, 3.33, 1.11, 0.37, 0.12, 0.04, 0.01 μM with serum free RPMI-1640 medium containing 5% DMSO. Then 10 μL of the diluted compound was added into the above 90 μL cell cultures (final concentration of DMSO in the reaction mixture should be 0.5%), and incubated at 37° C., 5% CO2 for 72 h.
10 μL of CCK-8 solution was added into cells, and incubated at 37° C., 5% CO2 for additional 1 h. The optical density of each well was measured at 450 nm and 630 nm, respectively, by Labsystems Multiskan K3.
[formula] • [OD compound]450-630: the optical density of well containing cells with compound treatment; • [OD cell]450-630: the optical density of wells containing cells without compound treatment; • [OD background]450-630: the optical density of wells containing culture medium only.
IC50: IC50 is calculated based on the inhibition curve fitted by XL-Fit 2.0 software.

[3] = 20 mg/kg bid oral, end of study

SMILES: Cc1cc2cc(Oc3ccnc(Nc4cccc(CS(=O)(=O)NCCN(C)C)c4)n3)ccc2[nH]1 [Compound A, N-(2-(dimethylamino)ethyl)-1-(3-((4-((2-methyl-1H-indol-5-yl)oxy)pyrimidin-2-yl)amino)phenyl)-methanesulfonamide]
- IRTW (tumor weight inhibition) [1, 3]: 49.9* %
- TGI (tumor growth inhibition) [1, 3]: 57.1%
- TGI (tumor growth inhibition) ([1]; 40 mg/kg bid oral, end of study): 73.9%
- TGI (tumor growth inhibition) ([1]; 80 mg/kg bid oral, end of study): 80.0%
- clinical signs of toxicity ([1]; treated mice, 20, 40 and 80 mg/kg bid oral): No clinical signs of toxicity were observed
- IC50 [2]: 159 nM
